Measured values taken from US11951094B2, “TLR2 modulator compounds, pharmaceutical compositions and uses thereof” (Axial Therapeutics, Inc., priority 2020, dated 2024).

Target: TLR2 (Homo sapiens, UniProt O60603)
Test: TLR2 agonist screening assay, HEK-Blue TLR2 reporter cell line (NF-kB-driven SEAP, absorbance at 600 nm)
Type: cell-based
Set-up: host or cells: HEK-293 (HEK-Blue TLR2 reporter cell line)
Details: HEK-Blue TLR2 reporter cells, agonist mode
Procedure, shortened: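 EC50 values come from 600 nm absorbance of SEAP-converted substrate after overnight agonist exposure. The reporter line was HEK-293 engineered with TLR2 and an NF-kB-SEAP construct, seeded at about 40,000 cells per well 16-24 h beforehand. Compounds were added at 1% final DMSO.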

Sequence of TLR2 (O60603 21-784): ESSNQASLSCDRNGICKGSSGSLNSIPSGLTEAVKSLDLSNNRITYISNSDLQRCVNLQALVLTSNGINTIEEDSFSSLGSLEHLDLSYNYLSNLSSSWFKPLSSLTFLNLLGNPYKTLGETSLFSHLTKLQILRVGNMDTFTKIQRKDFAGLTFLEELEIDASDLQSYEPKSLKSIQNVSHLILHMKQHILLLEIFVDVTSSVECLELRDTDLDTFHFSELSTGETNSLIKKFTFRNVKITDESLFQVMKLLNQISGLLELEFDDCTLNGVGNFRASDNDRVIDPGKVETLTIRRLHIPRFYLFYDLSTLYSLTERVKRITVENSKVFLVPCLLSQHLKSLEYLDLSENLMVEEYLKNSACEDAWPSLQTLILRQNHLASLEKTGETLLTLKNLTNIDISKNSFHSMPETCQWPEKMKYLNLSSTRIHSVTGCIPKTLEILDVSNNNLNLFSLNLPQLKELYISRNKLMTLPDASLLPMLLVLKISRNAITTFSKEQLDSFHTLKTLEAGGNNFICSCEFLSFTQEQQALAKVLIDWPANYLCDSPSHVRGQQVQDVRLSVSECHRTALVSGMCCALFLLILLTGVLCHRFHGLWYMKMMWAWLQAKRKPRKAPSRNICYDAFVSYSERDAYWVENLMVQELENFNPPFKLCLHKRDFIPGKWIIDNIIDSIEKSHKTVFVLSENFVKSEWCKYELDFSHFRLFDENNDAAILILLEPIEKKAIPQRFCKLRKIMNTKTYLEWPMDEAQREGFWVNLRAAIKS

EC50 (average of all runs (Table 4)) [nM]	EC50 (average of all runs (Table 3)) [nM]	Compound
> 1000		CCCCCNC(=O)[C@@H]1CN(C(=O)c2ccc(C(=O)N3C[C@@H](C(=O)N[C@H]4C[C@@H]4c4ccccc4)[C@H](C(=O)N[C@H]4C[C@@H]4c4ccccc4)C3)cc2)CCN1C(C)=O [Compound 264, (3S,4S)-1-(4-((S)-4-acetyl-3-(pentylcarbamoyl)piperazine-1-carbonyl)benzoyl)-N3,N4-bis((1S,2R)-2-phenylcyclopropyl) pyrrolidine-3,4-dicarboxamide]
0.1 to 50		CCCCCCCCCCCCCCC(=O)N[C@H]1CN(C(=O)c2ccc(C(=O)N3C[C@@H](C(=O)N[C@H]4C[C@@H]4c4ccccc4)[C@H](C(=O)N[C@H]4C[C@@H]4c4ccccc4)C3)cc2)C[C@H]1OC [Compound 236, (3S,4S)-1-(4-((3R,4S)-3-methoxy-4-pentadecanamidopyrrolidine-1-carbonyl)benzoyl)-N3,N4-bis ((1S,2R)-2-phenylcyclopropyl) pyrrolidine-3,4-dicarboxamide]
	> 1000	CCCCCCCCCCCCCCC(=O)NC(C)(C)CNC(=O)c1ccc(C(=O)N2C[C@@H](C(=O)N[C@H]3C[C@@H]3c3ccccc3)[C@H](C(=O)N[C@H]3C[C@@H]3c3ccccc3)C2)cc1 [Compound 012]
> 1000		CCCCCCCCCCCCNC(=O)[C@@H]1CN(C(=O)c2ccc(C(=O)N3C[C@@H](C(=O)N[C@H]4C[C@@H]4c4ccccc4)[C@H](C(=O)N[C@H]4C[C@@H]4c4ccccc4)C3)cc2)CCN1C(C)=O [Compound 255, (3S,4S)-1-(4-((S)-4-acetyl-3-(dodecylcarbamoyl)piperazine-1-carbonyl)benzoyl)-N3,N4-bis((1S,2R)-2-phenylcyclopropyl)pyrrolidine-3,4-dicarboxamide]
0.1 to 50		CCCCCCCCCCCCCNC(=O)N[C@@H]1CCN(C(=O)c2ccc(C(=O)N3C[C@@H](C(=O)N[C@H]4C[C@@H]4c4ccccc4)[C@H](C(=O)N[C@H]4C[C@@H]4c4ccccc4)C3)cc2)C1 [Compound 079, (3S,4S)—N3,N4-bis((1S,2R)-2-phenylcyclopropyl)-1-(4-((R)-3-(3-tridecylureido)pyrrolidine-1-carbonyl)benzoyl)pyrrolidine-3,4-dicarboxamide]
> 1000		CCCCCCCCCC(=O)N[C@@H](CNC(=O)Nc1ccc(C(=O)N2C[C@@H](C(=O)N[C@H]3C[C@@H]3c3ccccc3)[C@H](C(=O)N[C@H]3C[C@@H]3c3ccccc3)C2)cc1)C(=O)NCCCCCC [Compound 235, (3S,4S)-1-(4-(3-((S)-2-decanamido-3-(hexylamino)-3-oxopropyl)ureido)benzoyl)-N3,N4-bis((1S,2R)-2-phenylcyclopropyl)pyrrolidine-3,4-dicarboxamide]
> 1000		CCCCCCCNC(=O)[C@@H]1CN(C(=O)c2ccc(C(=O)N3C[C@@H](C(=O)N[C@H]4C[C@@H]4c4ccccc4)[C@H](C(=O)N[C@H]4C[C@@H]4c4ccccc4)C3)cc2)CCN1C(C)=O [Compound 258, (3S,4S)-1-(4-((S)-4-acetyl-3-(heptylcarbamoyl)piperazine-1-carbonyl)benzoyl)-N3,N4-bis((1S,2R)-2-phenylcyclopropyl)pyrrolidine-3,4-dicarboxamide]
	51 to 350	CCCCCCCC(=O)N1CC(=O)N(Cc2ccc(C(=O)N3C[C@@H](C(=O)N[C@H]4C[C@@H]4c4ccccc4)[C@H](C(=O)N[C@H]4C[C@@H]4c4ccccc4)C3)cc2)C[C@@H]1C(=O)NCCCCCC [Compound 074, (3S,4S)-1-(4-(((R)-5-(hexylcarbamoyl)-4-octanoyl-2-oxopiperazin-1-yl)methyl)benzoyl)-N3,N4-bis((1S,2R)-2-phenylcyclopropyl)pyrrolidine-3,4-dicarboxamide]
51 to 350		CCCCCCCO[C@H]1CN(C(=O)c2ccc(C(=O)N3C[C@@H](C(=O)N[C@H]4C[C@@H]4c4ccccc4)[C@H](C(=O)N[C@H]4C[C@@H]4c4ccccc4)C3)cc2)C[C@@H]1NC(=O)CCCCCC [Compound 080, (3S,4S)-1-(4-((3S,4S)-3-heptanamido-4-(heptyloxy)pyrrolidine-1-carbonyl)benzoyl)-N3,N4-bis((1S,2R)-2-phenylcyclopropyl)pyrrolidine-3,4-dicarboxamide]
351 to 1000		O=C(N[C@H]1C[C@@H]1c1ccccc1)[C@@H]1CN(C(=O)C23CCC(C(=O)N4C[C@@H](C(=O)N[C@H]5C[C@@H]5c5ccccc5)[C@H](C(=O)N[C@H]5C[C@@H]5c5ccccc5)C4)(CC2)C3)C[C@H]1C(=O)N[C@H]1C[C@@H]1c1ccccc1 [Compound 081, (3S,3'S,4S,4'S)-1,1′-(bicyclo [2.2.1]heptane-1,4-dicarbonyl) bis (N3,N4-bis((1S,2R)-2-phenylcyclopropyl)pyrrolidine-3,4-dicarboxamide)]
51 to 350		CCCCCCCCCCCCCCNC(=O)[C@H]1CN(C(=O)c2ccc(C(=O)N3C[C@@H](C(=O)N[C@H]4C[C@@H]4c4ccccc4)[C@H](C(=O)N[C@H]4C[C@@H]4c4ccccc4)C3)cc2)CCO1 [Compound 150, (3S,4S)—N3,N4-bis ((1S,2R)-2-phenylcyclopropyl)-1-(4-((R)-2-(tetradecylcarbamoyl)morpholine-4-carbonyl)benzoyl) pyrrolidine-3,4-dicarboxamide]
	> 1000	O=C(NC1CCCCCCC1)[C@H]1CCN(C(=O)c2ccc(C(=O)N3C[C@@H](C(=O)N[C@H]4C[C@@H]4c4ccccc4)[C@H](C(=O)N[C@H]4C[C@@H]4c4ccccc4)C3)cc2)C1 [Compound 003]
0.1 to 50		CCCCCCCCCCCCCNC(=O)N[C@@H]1CN(C(=O)c2ccc(C(=O)N3C[C@@H](C(=O)N[C@H]4C[C@@H]4c4ccccc4)[C@H](C(=O)N[C@H]4C[C@@H]4c4ccccc4)C3)cc2)C[C@@H]1OC [Compound 208, (3S,4S)-1-(4-((3S,4R)-3-methoxy-4-(3-tridecylureido)pyrrolidine-1-carbonyl)benzoyl)-N3,N4-bis((1S,2R)-2-phenylcyclopropyl)pyrrolidine-3,4-dicarboxamide]
0.1 to 50		CCCCCCCC(=O)N[C@@H](CNC(=O)c1ccc(C(=O)N2C[C@@H](C(=O)N[C@H]3C[C@@H]3c3ccccc3)[C@H](C(=O)N[C@H]3C[C@@H]3c3ccccc3)C2)cc1)C(=O)NCCCCCC [Compound 173, (3S,4S)-1-(4-(((S)-3-(hexylamino)-2-octanamido-3-oxopropyl)carbamoyl)benzoyl)-N3,N4-bis((1S,2R)-2-phenylcyclopropyl)pyrrolidine-3,4-dicarboxamide]
	> 1000	CCCCCCCS(=O)(=O)N1CCN(C(=O)c2ccc(C(=O)N3C[C@@H](C(=O)N[C@H]4C[C@@H]4c4ccccc4)[C@H](C(=O)N[C@H]4C[C@@H]4c4ccccc4)C3)cc2)CC1C(=O)NCCCCCC (some centres unmarked) [Compound 047]
0.1 to 50		CCCCCCCC[C@@H]1CN(C(=O)c2ccc(C(=O)N3C[C@@H](C(=O)N[C@H]4C[C@@H]4c4ccccc4)[C@H](C(=O)N[C@H]4C[C@@H]4c4ccccc4)C3)cc2)C[C@H]1C(=O)NCCCCCC (racemic) [Compound 085, (3S,4S)-1-(4-((3S*,4S*)-3-(hexylcarbamoyl)-4-octylpyrrolidine-1-carbonyl)benzoyl)-N3,N4-bis((1S,2R)-2-phenylcyclopropyl)pyrrolidine-3,4-dicarboxamide]
> 1000		CCCCCCCCCC(=O)N[C@@H](CN1C(=O)c2ccc(C(=O)N3C[C@@H](C(=O)N[C@H]4C[C@@H]4c4ccccc4)[C@H](C(=O)N[C@H]4C[C@@H]4c4ccccc4)C3)cc2C1=O)C(=O)NCCCCCC [Compound 240, (3S,4S)-1-(2-((S)-2-decanamido-3-(hexylamino)-3-oxopropyl)-1,3-dioxoisoindoline-5-carbonyl)-N3,N4-bis((1S,2R)-2-phenylcyclopropyl)pyrrolidine-3,4-dicarboxamide]
	> 1000	O=C(N[C@H]1C[C@@H]1c1ccccc1)[C@@H]1CN(C(=O)C23CC(C(=O)N4C[C@@H](C(=O)N[C@H]5C[C@@H]5c5ccccc5)[C@H](C(=O)N[C@H]5C[C@@H]5c5ccccc5)C4)(C2)C3)C[C@H]1C(=O)N[C@H]1C[C@@H]1c1ccccc1 [Compound 068]
	51 to 350	CCCCCCCCCCCCCCNC(=O)[C@@H]1CN(C(=O)c2ccc(C(=O)N3C[C@@H](C(=O)N[C@H]4C[C@@H]4c4ccccc4)[C@H](C(=O)N[C@H]4C[C@@H]4c4ccccc4)C3)cc2)C[C@H]1NC(C)=O [Compound 028, (3S,4S)-1-(4-((3S,4R)-3-acetamido-4-(tetradecylcarbamoyl)pyrrolidine-1-carbonyl)benzoyl)-N3,N4-bis((1S,2R)-2-phenylcyclopropyl)pyrrolidine-3,4-dicarboxamide]
	0.1 to 50	CCCCCCNC(=O)[C@@H]1CN(C(=O)c2ccc(C(=O)N3C[C@@H](C(=O)N[C@H]4C[C@@H]4c4ccccc4)[C@H](C(=O)N[C@H]4C[C@@H]4c4ccccc4)C3)cc2)C[C@H]1C(=O)NCCCCCC [Compound 035]
0.1 to 50		CCCCCCCCCCCCCCNC(=O)[C@H]1CCCN(C(=O)c2ccc(C(=O)N3C[C@@H](C(=O)N[C@H]4C[C@@H]4c4ccccc4)[C@H](C(=O)N[C@H]4C[C@@H]4c4ccccc4)C3)cc2)C1 [Compound 123, (3S,4S)—N3,N4-bis((1S,2R)-2-phenylcyclopropyl)-1-(4-((S)-3-(tetradecylcarbamoyl)piperidine-1-carbonyl)benzoyl)pyrrolidine-3,4-dicarboxamide]
> 1000		CCCCCCCCCCCCCCC(=O)N[C@H]1CCCN(C(=O)c2ccc(C(=O)N3C[C@@H](C(=O)N[C@H]4C[C@@H]4c4ccccc4)[C@H](C(=O)N[C@H]4C[C@@H]4c4ccccc4)C3)cc2)C1 [Compound 124, (3S,4S)-1-(4-((S)-3-pentadecanamidopiperidine-1-carbonyl)benzoyl)-N3,N4-bis((1S,2R)-2-phenylcyclopropyl)pyrrolidine-3,4-dicarboxamide]
	> 1000	CCCCCCNC(=O)[C@H](CCNC(=O)CCCCCC)NC(=O)c1ccc(C(=O)N2C[C@@H](C(=O)N[C@H]3C[C@@H]3c3ccccc3)[C@H](C(=O)N[C@H]3C[C@@H]3c3ccccc3)C2)cc1 [Compound 021]
